Reference: US12473295B2, “Substituted straight chain spiro derivatives” (Janssen Pharmaceutica NV, priority 2019, dated 2025)
Structures can show the parent of a compound that is named as a salt. Where two headings read alike, the source gives them in different places.

Columns and labels:
OCI-AML3 cells = test: Proliferation assay (spheroid growth, 8 days), OCI-AML3; format: cell-based, human
Method in brief: (§1)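 Spheroid size on day 8, taken as live-cell imaging confluence, served as readout after 8-day compound exposure (0.3% DMSO, 37 °C, 5% CO2) in round-bottom low-attachment wells. Seeding was 200 cells for MOLM14 and OCI-AML3, 300 for KO-52. IC50 came from % effect versus DMSO and reference baseline, fitted with variable slope.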

MEIS1 mRNA = MEIS1 mRNA expression assay (Quantigene Singleplex) in MOLM14 cells; format: cell-based, human;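 note: MEIS1 transcript levels read by probe hybridization and normalized to RPL28 mRNA, with IC50 fitted to fold changes across a rising compound concentration series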
KO-52 cells = test: Proliferation assay (spheroid growth, 8 days), KO-52 control cell line; format: cell-based, human; conditions: read-out: spheroid assay_OneTime KO-52 IC50
Method in brief: as §1

hERG potassium channel = hERG potassium channel (Homo sapiens (Human), UniProt Q12809); test: Effect on membrane potassium current IKr in hERG transfected CHO cells, Protocol 1 (QPatch); format: cell-based
Sequence of hERG potassium channel (Q12809 whole entry): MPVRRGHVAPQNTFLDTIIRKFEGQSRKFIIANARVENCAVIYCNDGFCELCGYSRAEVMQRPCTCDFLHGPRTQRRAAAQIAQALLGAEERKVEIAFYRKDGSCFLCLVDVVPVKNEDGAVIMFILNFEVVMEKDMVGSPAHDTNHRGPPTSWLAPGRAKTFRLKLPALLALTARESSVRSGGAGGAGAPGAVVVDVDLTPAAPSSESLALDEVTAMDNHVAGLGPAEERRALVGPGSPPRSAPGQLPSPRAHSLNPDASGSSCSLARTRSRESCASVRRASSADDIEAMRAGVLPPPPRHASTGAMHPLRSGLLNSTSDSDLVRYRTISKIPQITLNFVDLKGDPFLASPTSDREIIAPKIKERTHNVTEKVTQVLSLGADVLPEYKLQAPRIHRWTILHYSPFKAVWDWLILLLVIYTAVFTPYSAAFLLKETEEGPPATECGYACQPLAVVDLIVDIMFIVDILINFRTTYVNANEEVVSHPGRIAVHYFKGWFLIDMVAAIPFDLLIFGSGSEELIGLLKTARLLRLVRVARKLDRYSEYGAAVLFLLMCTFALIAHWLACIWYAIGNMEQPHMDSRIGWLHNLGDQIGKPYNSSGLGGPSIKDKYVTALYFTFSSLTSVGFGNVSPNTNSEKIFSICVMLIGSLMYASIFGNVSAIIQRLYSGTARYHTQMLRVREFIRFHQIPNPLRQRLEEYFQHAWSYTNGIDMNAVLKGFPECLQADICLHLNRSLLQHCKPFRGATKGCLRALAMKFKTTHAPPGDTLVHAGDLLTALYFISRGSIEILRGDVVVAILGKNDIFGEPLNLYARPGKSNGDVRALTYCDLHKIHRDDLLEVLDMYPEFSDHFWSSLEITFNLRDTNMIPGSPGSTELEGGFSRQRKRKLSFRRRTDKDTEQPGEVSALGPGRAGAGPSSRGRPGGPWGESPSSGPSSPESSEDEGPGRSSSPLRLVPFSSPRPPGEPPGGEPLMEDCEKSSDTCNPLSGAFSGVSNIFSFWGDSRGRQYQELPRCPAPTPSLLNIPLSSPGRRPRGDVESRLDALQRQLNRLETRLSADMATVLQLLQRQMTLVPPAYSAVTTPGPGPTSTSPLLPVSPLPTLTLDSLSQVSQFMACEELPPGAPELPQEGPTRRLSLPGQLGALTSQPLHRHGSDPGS
Procedure: 8) Effect on the Membrane Potassium Current IKr in hERG Transfected Cell Lines
• CHO Chinese hamster ovary cell line • DMSO Dimethylsulfoxide • hERG human ether-á-go-go-related gene • IKr rapidly activating delayed-rectifier K^+ current Methods
Experiments were performed using CHO cells stably expressing the hERG potassium channel. Cells were grown at 37° C. and 5% CO2 in culture flasks in Ham's F12 Medium supplemented with 10% heat-inactivated fetal calf serum, hygromycin B (100 μg/ml) and geneticin (100 μg/ml). For use in the automated patch-clamp system QPatch (Sophion) cells were harvested to obtain cell suspension of single cells.
Solutions: The bath solution contained (in mM) 145 NaCl, 4 KCl, 10 glucose, 10 HEPES ((4-(2-hydroxyethyl)-1-piperazineethanesulfonic acid), 2 CaCl2 and 1 MgCl2 (pH 7.4 with NaOH). The pipette solution contained (in mM) 120 KCl, 10 EGTA (Ethylene glycol-bis(2-aminoethylether)-N,N,N′,N′-tetraacetic acid), 10 HEPES, 5.374 CaCl2 and 1.75 MgCl2 (pH 7.2 with KOH).
Patch-clamp experiments were performed in the voltage-clamp mode and whole-cell currents were recorded with an automated patch-clamp assay utilizing the QPatch system (Sophion). Current signals were amplified and digitized, stored and analyzed by using the QPatch assay software.
The holding potential was −80 mV. The hERG current (K^+-selective outward current) was determined as the maximal tail current at −40 mV after a 2 second depolarization to +60 mV. Pulse cycling rate was 15 s. A short pulse (90 ms) to −40 mV served as a baseline step to calculate the tail current amplitude. After establishing whole-cell configuration and a stability period, the solvent control (0.3% DMSO) was applied for 5 minutes followed by the test substance by four increasing concentrations of 3×10^−7 M, 3×10^−6 M, 10^−5 M and 3×10^−5 M. Each concentration of the test substance was applied twice. The effect of each concentration was determined after 5 min as an average current of 3 sequential voltage pulses. To determine the extent of block the residual current was compared with vehicle pre-treatment.
Concentration/response relations were calculated by non-linear least-squares fits to the individual data points. The half-maximal inhibiting concentration (IC50) was calculated by the fitting routine.

MOLM14 cells = test: Proliferation assay (spheroid growth, 8 days), MOLM14; format: cell-based, human; conditions: MOLM14, 8 days, read-out: spheroid assay_OneTime MOLM14 IC50;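 note: spheroid size read as confluence by live-cell imaging, compounds added at a range of concentrations with 0.3% DMSO, DMSO-treated wells = 0%, highest reference dose = low control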
[1] = target: menin/MLL (terbium chelate-labeled menin, FITC-MBM1 peptide) (Homo sapiens (Human), UniProt O00255); test: Menin/MLL homogenous time-resolved fluorescence (HTRF) assay; format: binding;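 note: IC50 from percent inhibition of HTRF signal, normalized between wells without competitor and wells with a saturating competitor that displaces FITC-MBM1 from His-tagged menin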
Sequence of menin/MLL (terbium chelate-labeled menin, FITC-MBM1 peptide) (O00255 other isoform, or with tags, fused parts or gaps): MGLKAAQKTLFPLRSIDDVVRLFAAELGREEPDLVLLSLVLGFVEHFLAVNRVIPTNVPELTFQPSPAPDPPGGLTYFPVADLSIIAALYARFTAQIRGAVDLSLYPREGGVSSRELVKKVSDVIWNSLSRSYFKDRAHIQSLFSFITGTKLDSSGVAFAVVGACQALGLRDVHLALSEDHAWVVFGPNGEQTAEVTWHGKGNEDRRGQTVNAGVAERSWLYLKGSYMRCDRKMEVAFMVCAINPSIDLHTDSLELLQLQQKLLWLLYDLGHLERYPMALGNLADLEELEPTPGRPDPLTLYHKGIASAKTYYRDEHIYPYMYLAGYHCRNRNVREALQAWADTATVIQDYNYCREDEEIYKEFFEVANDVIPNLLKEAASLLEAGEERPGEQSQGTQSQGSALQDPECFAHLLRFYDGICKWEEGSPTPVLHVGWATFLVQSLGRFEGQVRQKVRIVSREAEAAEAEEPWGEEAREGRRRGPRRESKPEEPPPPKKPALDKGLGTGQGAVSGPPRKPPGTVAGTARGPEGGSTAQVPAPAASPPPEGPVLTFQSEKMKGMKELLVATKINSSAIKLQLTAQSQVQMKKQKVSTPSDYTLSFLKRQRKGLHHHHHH

[2] = Homo sapiens, OCI-AML-3, […], OCI-AML3, 8 days
[3] = Homo sapiens, MOLM-14, 48 h, 48 hours incubation
[4] = HTRF-30 min incubation IC50, 30 min incubation
[5] = Homo sapiens, OCI-AML-3, OCI-AML3, 8 days
[6] = Homo sapiens, MOLM-14, 48 hours incubation

SMILES | IC50 (OCI-AML3 cells; [2]) | IC50 (MEIS1 mRNA; [3]) | IC50 (KO-52 cells; Homo sapiens, […]) | IC50 (hERG potassium channel) | IC50 (MOLM14 cells; Homo sapiens, MOLM-14, […]) | IC50 [1, 4] | IC50 (OCI-AML3 cells; OCI-AML3, 8 days) | IC50 (MEIS1 mRNA; 48 hours incubation) | IC50 (KO-52 cells) | IC50 (MOLM14 cells) | IC50 ([1]; read-out: HTRF-30 min incubation IC50, 30 min incubation) | IC50 (OCI-AML3 cells; [5]) | IC50 (MEIS1 mRNA; [6]) | IC50 (KO-52 cells; Homo sapiens) | IC50 (MOLM14 cells; Homo sapiens, MOLM-14)
CCN(C(=O)c1cc(F)ccc1Oc1nncnc1N1CCC2(C1)CN([C@H](CCCNC(=O)OC(C)OC(=O)C(C)C)C(C)C)C2)C(C)C (stereo partly drawn) [Compound 39, 1-((((R)-4-(6-(6-(2-(ethyl(isopropyl)carbamoyl)-4-fluorophenoxy)-1,2,4-triazin-5-yl)-2,6-diazaspiro[3.4]octan-2-yl)-5-methylhexyl)carbamoyl)oxy)ethyl isobutyrate] | 140 nM | 44 nM | > 15000 nM | 7600 nM | 27 nM | 0.26 nM | – | – | – | – | – | – | – | – | –
CCOCCN(C)CCC[C@H](C(C)C)N1CC2(CCN(c3ncnnc3Oc3ccc(F)cc3C(=O)N(CC)C(C)C)C2)C1 [Compound 258, (R)-2-((5-(2-(6-((2-ethoxyethyl)(methyl)amino)-2-methylhexan-3-yl)-2,6-diazaspiro[3.4]octan-6-yl)-1,2,4-triazin-6-yl)oxy)-N-ethyl-5-fluoro-N-isopropylbenzamide oxalate] | 740 nM | 26 nM | 5440 nM | > 30200 nM | 27 nM | 0.33 nM | – | – | – | – | – | – | – | – | –
CC(C)[C@@H](CCCN(C)C)N1CC2(CCN(c3ccnnc3Oc3ccc(F)cc3C(=O)N(C(C)C)C(C)C)C2)C1 (single isomer, unassigned) [Compound 75, (*R)-2-((4-(2-(6-(dimethylamino)-2-methylhexan-3-yl)-2,6-diazaspiro[3.4]octan-6-yl)pyridazin-3-yl)oxy)-5-fluoro-N,N-diisopropylbenzamide] | – | – | – | > 30200 nM | – | – | 410 nM | 140 nM | > 15000 nM | 53 nM | 0.21 nM | – | – | – | –
CCN(C(=O)c1cc(F)ccc1Oc1nncnc1N1CCC2(C1)CN([C@H](CCC(C)(C)N(C)C)C(C)C)C2)C(C)C (single isomer, unassigned) [Compound 32, (*R)-2-((5(2-(6-(dimethylamino)-2,6-dimethylheptan-3-yl)-2,6-diazaspiro[3.4]octan-6-yl)-1,2,4-triazin-6-yl)oxy)-N-ethyl-5-fluoro-N-isopropylbenzamide] | 280 nM | 88 nM | 12900 nM | > 30200 nM | 58 nM | 0.1 nM | – | – | – | – | – | – | – | – | –
COCCN(C)CCC[C@H](C(C)C)N1CC2(CCN(c3ncnnc3Oc3ccc(F)cc3C(=O)N(C(C)C)C(C)C)C2)C1 (single isomer, unassigned) [Compound 94, (*R)-5-fluoro-N,N-isopropyl-2-((5-(2-(6-((2-methoxyethyl)(methyl)amino)-methylhexan-3-yl)-2,6-diazaspiro[3.4]octan-6-yl)-1,2,4-triazin-6-yl)oxy)benzamide oxalate] | 96 nM | 8.2 nM | 4750 nM | 30900 nM | 10 nM | 0.12 nM | – | – | – | – | – | – | – | – | –
CCN(C(=O)c1cc(F)ccc1Oc1nncnc1N1CCC2(C1)CN([C@H](CCC(C)(C)NC(C)=O)C(C)C)C2)C(C)C (single isomer, unassigned) [Compound 34] | 3440 nM | > 1000 nM | > 15000 nM | > 30200 nM | 3840 nM | 0.87 nM | – | – | – | – | – | – | – | – | –
CCN(C(=O)c1cc(F)ccc1Oc1nncnc1N1CCC2(C1)CN([C@H](CCCNCCC#N)C(C)C)C2)C(C)C [Compound 12, (R)-2-((5(2-(6-((2-cyanoethyl)amino)-2-methylhexan-3-yl)-2,6-diazaspiro[3.4]octan-6-yl)-1,2,4-triazin-6-yl)oxy)-N-ethyl-5-fluoro-N-isopropylbenzamide] | – | – | – | > 30200 nM | – | 0.12 nM | – | – | – | – | – | 630 nM | 39 nM | 8240 nM | 36 nM
CCN(C(=O)c1cc(F)ccc1Oc1nncnc1N1CCC2(C1)CN([C@H](CCCNC(=O)OC)C(C)C)C2)C(C)C [Compound 10, methyl (R)-(4-(6-(6-(2-(ethyl(isopropyl)carbamoyl)-4-fluorophenoxy)-1,2,4-triazin-5-yl)-2,6-diazaspiro[3.4]octan-2-yl)-5-methylhexyl)carbamate] | – | – | – | > 30200 nM | – | 0.18 nM | – | – | – | – | – | 1680 nM | 410 nM | > 15000 nM | 340 nM
CCN(C(=O)c1cc(F)ccc1Oc1nncnc1N1CCC2(C1)CN([C@H](CCCN(C)C(=O)OC(C)OC(=O)C(C)C)C(C)C)C2)C(C)C (stereo partly drawn) [Compound 40, 1-((((R)-4-(6-(6-(2-(ethyl(isopropyl)carbamoyl)-4-fluorophenoxy)-1,2,4-triazin-5-yl)-2,6-diazaspiro[3.4]octan-2-yl)-5-methylhexyl)(methyl)carbamoyl)oxy)ethyl isobutyrate] | 74 nM | 19 nM | 9540 nM | 5000 nM | 19 nM | 0.4 nM | – | – | – | – | – | – | – | – | –
CCN(C(=O)c1cc(F)ccc1Oc1nncnc1N1CCC2(C1)CN([C@H](CCC(C)(C)NC)C(C)C)C2)C(C)C (single isomer, unassigned) [Compound 35, (*R)-2-((5-(2-(2,6-dimethyl-6-(methylamino)heptan-3-yl)-2,6-diazaspiro[3.4]octan-6-yl)-1,2,4-triazin-6-yl)oxy)-N-ethyl-5-fluoro-N-isopropylbenzamide hydrochloride] | 490 nM | 120 nM | > 15000 nM | > 30200 nM | 200 nM | 0.15 nM | – | – | – | – | – | – | – | – | –
CCN(C(=O)c1cc(F)ccc1Oc1nncnc1N1CCC2(C1)CN([C@H](CCCNCC(F)(F)F)C(C)C)C2)C(C)C [Compound 17, (R)-N-ethyl-5-fluoro-N-isopropyl-2-((5-(2-(2-methyl-6-((2,2,2-trifluoroethyl)amino)hexan-3-yl)-2,6-diazaspiro[3.4]octan-6-yl)-1,2,4-triazin-6-yl)oxy)benzamide] | 1440 nM | 240 nM | 6790 nM | 4100 nM | 300 nM | 0.61 nM | – | – | – | – | – | – | – | – | –
CCN(C(=O)c1cc(F)ccc1Oc1nncnc1N1CCC2(C1)CN([C@H](CCCNCCC(F)(F)F)C(C)C)C2)C(C)C [Compound 14, (R)-N-ethyl-5-fluoro-N-isopropyl-2-((5-(2-(2-methyl-6-((3,3,3-trifluoropropyl)amino)hexan-3-yl)-2,6-diazaspiro[3.4]octan-6-yl)-1,2,4-triazin-6-yl)oxy)benzamide] | 69 nM | 8.5 nM | 3100 nM | 20000 nM | 10 nM | 0.05 nM | – | – | – | – | – | – | – | – | –
CCN(C(=O)c1cc(F)ccc1Oc1nncnc1N1CCC2(C1)CN(C(CCCNCCS(C)(=O)=O)C(C)C)C2)C(C)C (stereo not drawn) [Compound 18, N-ethyl-5-fluoro-N-isopropyl-2-((5-(2-(2-methyl-6-((2-(methylsulfonyl)ethyl)amino)hexan-3-yl)-2,6-diazaspiro[3.4]octan-6-yl)-1,2,4-triazin-6-yl)oxy)benzamide] | 660 nM | 150 nM | > 15000 nM | > 30200 nM | 120 nM | 0.3 nM | – | – | – | – | – | – | – | – | –
CCN(C(=O)c1cc(F)ccc1Oc1nncnc1N1CCC2(C1)CN([C@H](CCCN(C)C)C(C)C)C2)C(C)C [Compound 4, (R)-2-((5-(2-(6-(dimethylamino)-2-methylhexan-3-yl)-2,6-diazaspiro[3.4]octan-6-yl)-1,2,4-triazin-6-yl)oxy)-N-ethyl-5-fluoro-N-isopropylbenzamide] | 390 nM | 20 nM | > 15000 nM | > 30200 nM | 30 nM | 0.095 nM | – | – | – | – | – | – | – | – | –
